# Measurements taken from patent US20220257552A1, “METHODS OF PRESCREENING AND TREATING BREAST CANCERS WITH SELECTIVE ANDROGEN RECEPTOR MODULATORS” (priority 2021, published 2022).
# “And” between values parts separate entries of the source, which are not always exact repeats. Equal entries are not always repeated.
# Experiments:
# [1] = target: T1, AR (Homo sapiens, UniProt P10275); conditions: cited from earlier work
# T1 sequence (P10275 1-920): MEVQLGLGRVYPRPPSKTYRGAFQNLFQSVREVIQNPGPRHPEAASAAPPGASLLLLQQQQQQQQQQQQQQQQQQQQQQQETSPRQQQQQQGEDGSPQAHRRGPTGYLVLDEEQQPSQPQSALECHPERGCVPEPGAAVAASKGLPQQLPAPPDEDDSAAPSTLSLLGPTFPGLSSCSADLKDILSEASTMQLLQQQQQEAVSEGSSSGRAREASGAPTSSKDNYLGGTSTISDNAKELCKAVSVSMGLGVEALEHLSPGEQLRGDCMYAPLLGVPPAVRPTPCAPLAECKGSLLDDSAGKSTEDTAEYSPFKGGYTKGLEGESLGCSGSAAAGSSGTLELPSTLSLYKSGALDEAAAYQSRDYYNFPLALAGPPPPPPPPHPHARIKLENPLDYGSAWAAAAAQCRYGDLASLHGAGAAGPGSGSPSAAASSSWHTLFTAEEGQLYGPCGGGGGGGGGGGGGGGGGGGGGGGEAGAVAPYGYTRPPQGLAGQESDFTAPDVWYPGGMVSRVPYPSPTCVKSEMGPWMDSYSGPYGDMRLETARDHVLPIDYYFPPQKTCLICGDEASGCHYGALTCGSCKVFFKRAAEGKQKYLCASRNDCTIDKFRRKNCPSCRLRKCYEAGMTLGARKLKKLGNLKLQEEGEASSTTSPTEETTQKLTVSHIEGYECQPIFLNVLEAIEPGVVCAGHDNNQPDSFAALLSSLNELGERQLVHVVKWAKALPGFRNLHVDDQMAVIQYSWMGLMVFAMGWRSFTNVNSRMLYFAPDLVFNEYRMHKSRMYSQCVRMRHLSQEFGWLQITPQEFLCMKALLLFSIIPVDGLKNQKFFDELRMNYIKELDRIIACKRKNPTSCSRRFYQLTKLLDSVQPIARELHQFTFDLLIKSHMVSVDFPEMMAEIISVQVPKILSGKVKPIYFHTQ
# [2] = system: ER-positive metastatic breast cancer; test: Phase 2 trial G200801, 9 mg daily, ER-positive metastatic breast cancer; type: in vivo, human
# Excerpt: The goal of this study was to determine the importance of the AR status as a therapeutic target in women with ER-positive metastatic breast cancer (MBC) that had previously responded to hormone therapy. The treatment was continued until disease progression (PD).
# CBR will be correlated with AR status of metastatic tumor biopsy.
# Female subjects with ER-positive metastatic breast cancer who have previously been treated with up to 3 prior hormonal therapies for the treatment of breast cancer. Subjects must have been treated with and responded to previous adjuvant therapy for ≥3 years or hormonal therapy for metastatic disease for ≥6 months prior to progression. Details of subject selection criteria are presented below:
# The primary efficacy analysis was the clinical benefit in subjects with AR-positive breast cancer at 6 months as measured by a modified Response Evaluation Criteria in Solid Tumors (RECIST 1.1) classification. Key secondary endpoints of clinical benefit in all subjects and AR-negative subjects, as well as objective response rate, progression free survival, time to progression, duration of response, incidence of SREs, and time to first SRE in subsets based on AR status (i.e., all subjects, AR-positive subjects, and AR-negative subjects) was also assessed. Effects on CA 27-29, PSA, bone turnover markers, QOL, and libido were assessed as tertiary endpoints.
# Clinical benefit in a subject is defined as a complete response [CR], a partial response [PR] or stable disease [SD] as measured by modified RECIST 1.1, which is described in detail below. (Eisenhauer E A et al. New response evaluation criteria in solid tumors: revised RECIST guideline (version 1.1). European Journal of Cancer 45:228-247, 2009).
# For subjects with non-measurable (non-target) disease only at baseline, SD was defined as those with non-CR/non-PD combined response. The primary endpoint of the study was to assess the proportion of subjects with clinical benefit (PCB) at 6 months (CR+PR+SD) in subjects with AR-positive breast cancer.
smiles,measurement,setting,value
"C[C@](O)(COc1ccc(C#N)cc1)C(=O)Nc1ccc(C#N)c(C(F)(F)F)c1 [Formula IX, (S)—N-(4-Cyano-3-(trifluoromethyl)phenyl)-3-(4-cyanophenoxy)-2-hydroxy-2-methylpropanamide]",concentration at which it binds to and activates the AR,[1],less than 10 nM
same,AR-positive patients with clinical benefit at 6 months (primary endpoint),[2]; 9 mg daily,6/17
same,CR or PR,[2]; 9 mg daily,no CR or PR has been observed
same,median duration of SD as best response,[2]; 9 mg daily,212 days
same,patients with PSA increase,[2]; 9 mg daily,20 of the 22
same,tolerability,[2]; 9 mg daily,well-tolerated
same,subjects with clinical benefit (SD) at 6 months,"[2]; 9 mg once daily, all subjects",Seven out of twenty-two
same,tolerability,"[2]; 9 mg, no virilization, hematocrit increase or liver toxicity",well tolerated
same,A-fib,"[2]; AE count, 9 mg daily",1
same,anxiety/emotional changes,"[2]; AE count, 9 mg daily",5
same,arthralgia,"[2]; AE count, 9 mg daily",6
same,bloating,"[2]; AE count, 9 mg daily",2
same,bruising,"[2]; AE count, 9 mg daily",1
same,cellulitis,"[2]; AE count, 9 mg daily",1
same,chills,"[2]; AE count, 9 mg daily",1
same,constipation,"[2]; AE count, 9 mg daily",2
same,cough,"[2]; AE count, 9 mg daily",1
same,dehydration,"[2]; AE count, 9 mg daily",1
same,diarrhea,"[2]; AE count, 9 mg daily",3
same,dizziness,"[2]; AE count, 9 mg daily",2
same,dysgeusia,"[2]; AE count, 9 mg daily",1
same,dyspepsia,"[2]; AE count, 9 mg daily",1
same,dyspnea,"[2]; AE count, 9 mg daily",3
same,edema,"[2]; AE count, 9 mg daily",2
same,fatigue,"[2]; AE count, 9 mg daily",14
same,fever,"[2]; AE count, 9 mg daily",1
same,flatulence,"[2]; AE count, 9 mg daily",1
same,glaucoma,"[2]; AE count, 9 mg daily",1
same,headache,"[2]; AE count, 9 mg daily",4
same,hot flash night sweats,"[2]; AE count, 9 mg daily",7
same,hypertension,"[2]; AE count, 9 mg daily",2
same,infection,"[2]; AE count, 9 mg daily",1
same,insomnia,"[2]; AE count, 9 mg daily",2
same,myalgia,"[2]; AE count, 9 mg daily",5
same,nail discoloration,"[2]; AE count, 9 mg daily",1
same,nausea,"[2]; AE count, 9 mg daily",11
same,pain,"[2]; AE count, 9 mg daily",22
same,paresthesia,"[2]; AE count, 9 mg daily",1
same,pleural effusion,"[2]; AE count, 9 mg daily",1
same,polyuria,"[2]; AE count, 9 mg daily",1
same,post menopausal bleeding,"[2]; AE count, 9 mg daily",3
same,stiffness,"[2]; AE count, 9 mg daily",1
same,tendonitis,"[2]; AE count, 9 mg daily",1
same,vision changes,"[2]; AE count, 9 mg daily",3
same,vomiting,"[2]; AE count, 9 mg daily",2
same,weight gain,"[2]; AE count, 9 mg daily",2
same,weight loss,"[2]; AE count, 9 mg daily",2
same,subjects with CB as best response,[2]; all subjects (9/22),41%
same,Current Disposition,[2]; individual patients,D/C (2×) and Deceased (4×)
same,Days on Study,[2]; individual patients,255 Days and 105 Days and 7 Days and 18 Days and 158 Days and 308 Days and 52 Days and 63 Days and 230 Days and 84 Days (3×) and 252 Days and 28 Days and 239 Days and 86 Days and 202 Days and 190 Days and 99 Days and 137 Days and 100 Days and 91 Days
same,Day 84 RECIST,"[2]; individual patients, 9 mg daily",D/C SAE and PD SAE and D/C
same,tumor regression,[2]; one subject with SD,27%
